Results: ChEMBL document CHEMBL1201862, “PubChem BioAssay data set” (2004)
Calls of active or inactive are those of the source.

Key:
[1] = target: Sphingosine 1-phosphate receptor 4 (Homo sapiens, UniProt O95977); assay: Fluorescence dose response cell-based high throughput screening assay for antagonists of the Sphingosine 1-Phosphate Receptor 4 (S1P4). [Related pubchem assays: 1524 (Confirmation in triplicates.), 1510 (Primary screen.)]; type: functional
[2] = target: T1, Microphthalmia-associated transcription factor (Homo sapiens, UniProt O75030); assay: reducers of TRPM1 reporter luminescence, concentration series – cell-based, SK-MEL-5, cherry-picked, set 3, MITF inhibitor project, dose response (AID 493073); type: functional;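 also: SK-MEL-5 melanoma cells with luciferase driven by the MITF target TRPM1 promoter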
T1 sequence (O75030 whole entry): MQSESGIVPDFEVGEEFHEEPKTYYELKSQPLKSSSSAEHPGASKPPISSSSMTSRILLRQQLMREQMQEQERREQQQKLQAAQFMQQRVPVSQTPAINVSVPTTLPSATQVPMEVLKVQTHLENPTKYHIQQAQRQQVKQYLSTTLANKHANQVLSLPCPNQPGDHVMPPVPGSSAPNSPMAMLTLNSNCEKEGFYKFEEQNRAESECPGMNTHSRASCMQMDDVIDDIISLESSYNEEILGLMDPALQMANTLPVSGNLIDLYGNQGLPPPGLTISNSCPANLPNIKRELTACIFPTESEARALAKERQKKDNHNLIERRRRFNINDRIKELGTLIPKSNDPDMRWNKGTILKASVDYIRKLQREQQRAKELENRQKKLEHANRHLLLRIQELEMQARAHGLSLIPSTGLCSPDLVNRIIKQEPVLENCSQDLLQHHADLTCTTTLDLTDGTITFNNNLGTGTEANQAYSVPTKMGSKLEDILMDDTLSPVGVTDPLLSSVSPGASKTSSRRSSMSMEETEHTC

[3] = viability of HCT116 lacking mutant beta-catenin – cell-based, human colon tumor, dose response (AID 1045); type: functional;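 also: HCT116 colon tumor cells with beta catenin knocked out; cells exposed to compound for 60 hours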
[4] = reduced cellular PGC1a acetyl-lysine signal – cell-based, cherry-picked samples, dose response (AID 720514); type: functional;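 also: potency may reflect raised or lowered acetylation signal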
[5] = target: Sphingosine 1-phosphate receptor 1 (Homo sapiens, UniProt P21453); type: functional;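 also: Tango beta-arrestin reporter U2OS cells stimulated with S1P near its EC80; inhibitor potency meaning antagonism of receptor activation by the natural agonist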
Sphingosine 1-phosphate receptor 1, sequence (P21453 whole entry): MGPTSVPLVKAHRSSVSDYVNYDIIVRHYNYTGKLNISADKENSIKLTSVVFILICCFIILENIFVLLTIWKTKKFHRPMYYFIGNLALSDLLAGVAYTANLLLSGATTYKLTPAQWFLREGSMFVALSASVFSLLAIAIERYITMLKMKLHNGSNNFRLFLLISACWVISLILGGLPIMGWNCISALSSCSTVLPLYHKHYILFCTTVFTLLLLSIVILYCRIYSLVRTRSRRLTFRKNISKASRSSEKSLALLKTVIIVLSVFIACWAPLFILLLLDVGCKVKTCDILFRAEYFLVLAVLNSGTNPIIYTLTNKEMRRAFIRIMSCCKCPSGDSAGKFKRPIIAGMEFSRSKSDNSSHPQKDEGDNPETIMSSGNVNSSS

[6] = viability of PTEN-deleted HCT116 cells – cell-based, HCT116 PTEN knockout, dose response (AID 1047); type: functional;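 also: HCT116 colon tumor cells with PTEN knocked out; cells exposed to compound for 60 hours before readout; potency for loss of cell viability measured by luminescence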
[7] = target: T2, Alkaline phosphatase, tissue-nonspecific isozyme (Homo sapiens, UniProt P05186); assay: TNAP enzyme inhibition by screening hits, dose response, selectivity assay for mouse IAP inhibitor project, biochemical, human TNAP, uHTS hits (AID 488906); type: functional
T2 sequence (P05186 whole entry): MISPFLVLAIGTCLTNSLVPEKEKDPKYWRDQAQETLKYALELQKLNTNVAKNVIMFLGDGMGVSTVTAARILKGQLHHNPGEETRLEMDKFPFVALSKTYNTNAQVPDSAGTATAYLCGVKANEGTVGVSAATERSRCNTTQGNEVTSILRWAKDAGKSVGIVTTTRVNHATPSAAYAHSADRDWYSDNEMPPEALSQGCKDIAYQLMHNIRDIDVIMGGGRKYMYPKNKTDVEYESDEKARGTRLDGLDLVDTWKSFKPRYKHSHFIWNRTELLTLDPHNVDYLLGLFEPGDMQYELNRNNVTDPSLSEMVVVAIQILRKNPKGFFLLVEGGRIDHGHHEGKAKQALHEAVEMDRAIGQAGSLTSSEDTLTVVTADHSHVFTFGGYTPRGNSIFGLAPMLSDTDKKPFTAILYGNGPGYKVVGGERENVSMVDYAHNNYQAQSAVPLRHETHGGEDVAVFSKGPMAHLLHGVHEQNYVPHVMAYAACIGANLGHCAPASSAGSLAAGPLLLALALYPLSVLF

[8] = target: Intestinal-type alkaline phosphatase (Homo sapiens, UniProt P09923); assay: activation of human intestinal alkaline phosphatase – biochemical, dose response (AID 488873); type: functional
Intestinal-type alkaline phosphatase (Homo sapiens, UniProt P09923), sequence (P09923 whole entry): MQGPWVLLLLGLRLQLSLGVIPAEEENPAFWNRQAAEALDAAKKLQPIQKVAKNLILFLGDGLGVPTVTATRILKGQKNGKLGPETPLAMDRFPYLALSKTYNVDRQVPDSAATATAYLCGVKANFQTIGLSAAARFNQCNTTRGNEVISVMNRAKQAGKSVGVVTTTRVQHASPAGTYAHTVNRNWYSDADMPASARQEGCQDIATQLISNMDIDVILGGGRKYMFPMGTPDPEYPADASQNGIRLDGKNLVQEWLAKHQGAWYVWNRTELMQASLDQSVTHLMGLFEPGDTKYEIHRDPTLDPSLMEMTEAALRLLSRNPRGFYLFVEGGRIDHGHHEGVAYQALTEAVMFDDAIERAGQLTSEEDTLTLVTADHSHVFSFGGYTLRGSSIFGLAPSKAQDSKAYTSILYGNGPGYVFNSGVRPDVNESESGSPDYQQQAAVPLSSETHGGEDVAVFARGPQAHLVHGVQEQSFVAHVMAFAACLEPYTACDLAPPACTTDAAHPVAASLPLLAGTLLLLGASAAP

[9] = target: Intestinal-type alkaline phosphatase (Mus musculus, UniProt P24822); assay: PubChem AID 488785; type: functional
Intestinal-type alkaline phosphatase (Mus musculus, UniProt P24822), sequence (P24822 whole entry): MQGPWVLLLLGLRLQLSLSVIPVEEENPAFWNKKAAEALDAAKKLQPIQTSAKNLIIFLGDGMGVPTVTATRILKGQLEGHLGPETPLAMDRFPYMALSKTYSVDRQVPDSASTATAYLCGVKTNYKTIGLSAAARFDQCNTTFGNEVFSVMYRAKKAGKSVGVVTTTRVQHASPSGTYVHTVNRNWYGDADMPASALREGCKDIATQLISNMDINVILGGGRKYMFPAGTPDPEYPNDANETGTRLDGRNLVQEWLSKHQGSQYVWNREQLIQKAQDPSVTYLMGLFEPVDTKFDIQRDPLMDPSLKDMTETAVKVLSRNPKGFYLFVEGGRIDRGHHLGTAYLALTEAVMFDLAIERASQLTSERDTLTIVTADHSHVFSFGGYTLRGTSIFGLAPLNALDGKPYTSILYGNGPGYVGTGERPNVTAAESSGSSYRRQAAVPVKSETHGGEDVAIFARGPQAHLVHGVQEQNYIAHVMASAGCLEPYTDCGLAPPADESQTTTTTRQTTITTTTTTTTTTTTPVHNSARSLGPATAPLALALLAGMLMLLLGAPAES

[10] = Trypanosoma cruzi growth suppression in host cells – NIH3T3 host cells, beta-gal luminescence, confirmation (AID 2044); type: functional, cell-based;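 also: intracellular parasites grown in NIH/3T3 mouse fibroblasts as host cells; luminescent beta-galactosidase reporter signal from transgenic T. cruzi replicating inside host cells; inhibitors lower the luminescence signal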
[11] = NIH3T3 cell viability loss – ATP luminescence, mouse fibroblasts, counter-screen, dose response (AID 2010); type: functional, cell-based;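 also: cells exposed to compound for about 90 hours before reading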
[12] = target: T2, Alkaline phosphatase, tissue-nonspecific isozyme
[13] = antiviral protection against BTV-induced cell death – arbovirus, BSR cells, confirmation (AID 1250); type: functional;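 also: protection from viral cytopathic effect measured as cell viability by ATP luminescence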
[14] = target: Neuropeptide Y receptor type 2 (Homo sapiens, UniProt P49146); type: functional, cell-based;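 also: HEK293 cells expressing the receptor and a CNG channel; stimulus was NPY near EC95 followed by isoproterenol to raise cAMP; antagonist potency measured as restoring cAMP signal that NPY suppresses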
Neuropeptide Y receptor type 2, sequence (P49146 whole entry): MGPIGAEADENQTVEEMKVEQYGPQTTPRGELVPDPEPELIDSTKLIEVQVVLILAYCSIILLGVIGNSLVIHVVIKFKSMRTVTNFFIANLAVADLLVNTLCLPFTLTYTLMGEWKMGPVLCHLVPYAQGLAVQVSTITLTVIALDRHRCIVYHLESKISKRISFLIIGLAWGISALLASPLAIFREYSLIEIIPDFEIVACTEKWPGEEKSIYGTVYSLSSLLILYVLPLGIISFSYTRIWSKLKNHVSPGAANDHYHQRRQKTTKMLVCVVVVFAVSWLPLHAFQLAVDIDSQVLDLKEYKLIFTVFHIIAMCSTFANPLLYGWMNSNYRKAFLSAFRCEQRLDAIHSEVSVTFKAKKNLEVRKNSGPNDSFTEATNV

[15] = target: Neuropeptide Y receptor type 1 (Homo sapiens, UniProt P25929); type: functional;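 also: HEK293 cells with a CNG channel challenged with NPY then isoproterenol; potency as antagonist that reverses NPY suppression of cAMP signal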
Neuropeptide Y receptor type 1, sequence (P25929 whole entry): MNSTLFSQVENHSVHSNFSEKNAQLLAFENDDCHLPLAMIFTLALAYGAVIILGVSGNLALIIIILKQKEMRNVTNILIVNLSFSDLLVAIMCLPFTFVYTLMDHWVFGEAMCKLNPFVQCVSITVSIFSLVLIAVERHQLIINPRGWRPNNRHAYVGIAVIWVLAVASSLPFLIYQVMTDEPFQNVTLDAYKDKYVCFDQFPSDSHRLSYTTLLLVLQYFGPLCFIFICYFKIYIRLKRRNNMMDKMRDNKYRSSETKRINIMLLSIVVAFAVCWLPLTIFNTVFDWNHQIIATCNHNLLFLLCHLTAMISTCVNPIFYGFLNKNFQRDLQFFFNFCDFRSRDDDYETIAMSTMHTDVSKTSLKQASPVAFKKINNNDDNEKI

[16] = mitochondrial function rescue without frataxin homolog – Friedreich's ataxia, plus single-dose screen, dose response (AID 1465); type: functional;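 also: yeast depleted of Yfh1p frataxin homolog grown on glycerol needing respiration; WST-1 tetrazolium dye reduction as measure of cellular dehydrogenase metabolic activity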

Sphingosine 1-phosphate receptor 4, sequence (O95977 whole entry): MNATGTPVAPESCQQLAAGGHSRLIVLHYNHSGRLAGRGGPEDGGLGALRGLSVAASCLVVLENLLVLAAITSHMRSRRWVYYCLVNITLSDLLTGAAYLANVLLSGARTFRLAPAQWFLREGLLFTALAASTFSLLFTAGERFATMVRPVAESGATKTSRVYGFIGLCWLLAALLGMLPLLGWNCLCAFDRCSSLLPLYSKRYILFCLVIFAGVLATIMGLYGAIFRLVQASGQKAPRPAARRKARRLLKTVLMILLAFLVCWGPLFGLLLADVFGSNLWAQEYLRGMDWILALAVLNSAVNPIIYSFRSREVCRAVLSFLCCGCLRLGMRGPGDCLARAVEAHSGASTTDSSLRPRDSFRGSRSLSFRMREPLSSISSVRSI

Cc1ccc(C)c(C(=O)Cn2ncc(Cl)c(Cl)c2=O)c1
IC50 [1]: 2.99 µM (active)
AC50 [2]: 14.5 µM (active)
EC50 [3]: 2.35 µM (active)
AC50 [4]: 8.4 µM (active)
IC50 [5]: 12.1 µM (not active)
EC50 [6]: 3.56 µM (active)

CC(C)c1ccc(NC(=O)NC2CCN(CC(=O)Nc3cccc4ccccc34)CC2)cc1
IC50 [7]: 59.3 µM (active)
EC50 [8]: > 100 µM (inactive)
IC50 [9]: 10.8 µM (active)
EC50 [10]: 1.88 µM (active)
EC50 [11]: > 60 µM (inconclusive)
EC50 [12]: > 100 µM (not active)

CCc1cc(C(=O)O)c(NC(=O)C(c2ccccc2)c2ccccc2)s1
IC50 [13]: 23.2 µM (active)

CCN(CC)CC#CCC(C)(c1ccccc1)c1ccccc1
IC50 [14]: 6.17 µM (active)
IC50 [15]: < 12 µM (not active)

CCN(CC)c1ccc2cc(C(N)=O)c(=N)oc2c1
EC50 [16]: > 100 µM (active)
